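Cultured in 96-well plates, cells were exposed to test compound for 48 hours across five concentrations. GI50 = concentration required for 50% inhibition of growth. TGI: total growth inhibition.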

The record followed here is PubChem BioAssay (NCI).

Among the test systems are T-47D breast; NCI-H460 lung; NCI-H226 lung; SF-295 CNS; A549 NSCLC; COLO 205 colon; MDA-N; EKVX NSCLC; SK-MEL-2 melanoma; MDA-MB-435; HOP-62 NSCLC; ACHN renal.
What all share (experiment): NCI tumour cell line growth inhibition, 48 h

In the case of `O=[N+]([O-])c1ccc(-n2nc3ccc4c(no[n+]4[O-])c3n2)cc1`, the TGI in the assay with T-47D breast, in the assay with NCI-H460 lung, in the assay on NCI-H226 lung, in the assay with SF-295 CNS, with A549 NSCLC and in the assay on COLO 205 colon was over 100 µM each time. For the same compound, the TGI with MDA-N, in the assay on EKVX NSCLC, in the assay with SK-MEL-2 melanoma, with MDA-MB-435, in the assay with HOP-62 NSCLC and in the assay on ACHN renal was over 100 µM each time.

For the compound `CN(C)N1C(=O)S/C(=C\c2ccc([N+](=O)[O-])cc2)C1=O`, the TGI with T-47D breast, with NCI-H460 lung, in the assay with NCI-H226 lung, in the assay with SF-295 CNS, in the assay on A549 NSCLC and in the assay with COLO 205 colon was over 100 µM each time. For the same compound, the TGI with MDA-N, in the assay with EKVX NSCLC, in the assay on SK-MEL-2 melanoma, in the assay on MDA-MB-435, in the assay on HOP-62 NSCLC and in the assay on ACHN renal was over 100 µM in each case.

With `Cc1ccc2c(=O)cc(-c3ccc4ccccc4c3)[nH]c2n1`, the TGI in the assay on T-47D breast is over 100 µM; in the assay on NCI-H460 lung, over 100 µM; with NCI-H226 lung, 98.4 µM; in the assay on SF-295 CNS, 39.6 µM; in the assay on A549 NSCLC, over 100 µM; with COLO 205 colon, 5.55 µM. Also, the TGI with MDA-N is 4.69 µM; in the assay with EKVX NSCLC, over 100 µM; with SK-MEL-2 melanoma it was over 100 µM; in the assay with MDA-MB-435 it was 4.16 µM; with HOP-62 NSCLC, over 100 µM; with ACHN renal, over 100 µM. The GI50 was 3.82 µM in the assay with NCI-H460 lung, 3.8 µM in the assay on SF-295 CNS, 1.94 µM in the assay on MDA-N and 1.57 µM in the assay with MDA-MB-435.

For `O=C(/C=C/c1ccccc1)Nc1ccccc1SCCCCl`, the TGI in the assay with T-47D breast was over 85.8 µM; with NCI-H460 lung, over 82.2 µM; with NCI-H226 lung, over 100 µM; in the assay with SF-295 CNS, 49.4 µM; in the assay with A549 NSCLC, over 100 µM; with COLO 205 colon, 48.5 µM. The TGI was 28.6 µM in the assay on MDA-N; over 100 µM in the assay with EKVX NSCLC; over 100 µM in the assay with SK-MEL-2 melanoma; 37 µM in the assay on MDA-MB-435; over 100 µM with HOP-62 NSCLC; over 100 µM in the assay with ACHN renal.

As for `C=CC1CN(C(=O)OCC)N(C(=O)OCC)C1CCc1ccccc1` (stereo unspecified), the TGI with T-47D breast, in the assay with NCI-H460 lung, in the assay with NCI-H226 lung, in the assay with SF-295 CNS, with A549 NSCLC and in the assay on COLO 205 colon was over 100 µM in each case. Also, the TGI with MDA-N, in the assay on EKVX NSCLC, in the assay on SK-MEL-2 melanoma, in the assay on MDA-MB-435, in the assay with HOP-62 NSCLC and in the assay with ACHN renal was over 100 µM each time.

Regarding `COc1cccc(/C=C2\S/C(=N/Nc3nc(C)c(C)s3)NC2=O)c1O`, the TGI with T-47D breast is 73.8 µM; in the assay on NCI-H460 lung it was over 100 µM; in the assay on NCI-H226 lung, over 100 µM; with SF-295 CNS, over 100 µM; in the assay with A549 NSCLC it was over 100 µM; in the assay with COLO 205 colon, over 100 µM. Further, the TGI in the assay with MDA-N, in the assay with EKVX NSCLC, in the assay on SK-MEL-2 melanoma, with MDA-MB-435, in the assay on HOP-62 NSCLC and in the assay on ACHN renal was over 100 µM throughout.

Take `CC(Nc1ccc(Cl)c(Cl)c1)c1ccncc1` (stereo unspecified): the TGI in the assay with T-47D breast was over 100 µM; in the assay on NCI-H460 lung, 44 µM; in the assay with NCI-H226 lung, 81.6 µM; in the assay with SF-295 CNS it was 64.2 µM; in the assay on A549 NSCLC it was over 100 µM; in the assay with COLO 205 colon it was 31.4 µM. For the same compound, the TGI with MDA-N is 66.6 µM; in the assay on EKVX NSCLC it was over 100 µM; in the assay on SK-MEL-2 melanoma, 55.6 µM; with MDA-MB-435 it was over 100 µM; in the assay with HOP-62 NSCLC, 49.7 µM; in the assay with ACHN renal, over 100 µM.

For the compound `Cc1c(N=C/C=C/c2ccccc2)c(=O)n(-c2ccccc2)n1C`, the TGI in the assay on T-47D breast was 62.4 µM; with NCI-H460 lung it was over 100 µM; in the assay on NCI-H226 lung it was 38 µM; in the assay on SF-295 CNS, 40.6 µM; in the assay on A549 NSCLC, over 100 µM; in the assay on COLO 205 colon, over 100 µM. For the same compound, the TGI in the assay with MDA-N was 54 µM; in the assay with EKVX NSCLC, 81.8 µM; in the assay with SK-MEL-2 melanoma it was over 100 µM; in the assay on MDA-MB-435, over 100 µM; in the assay with HOP-62 NSCLC, 95.8 µM; with ACHN renal, over 100 µM.

Regarding `COC(=O)c1cc(NC(=O)Cc2c[nH]c3ccccc23)cn1C`, the TGI in the assay on T-47D breast, in the assay with NCI-H460 lung, in the assay on NCI-H226 lung, in the assay on SF-295 CNS, with A549 NSCLC and with COLO 205 colon was over 100 µM each time. The TGI in the assay with MDA-N, in the assay on EKVX NSCLC, with SK-MEL-2 melanoma, in the assay on MDA-MB-435, in the assay with HOP-62 NSCLC and with ACHN renal was over 100 µM throughout.

`CCOC(=O)c1nc2ccc(C(F)(F)F)cc2nc1NCc1ccc(OC)c(OC)c1`: the TGI in the assay on T-47D breast, in the assay on NCI-H460 lung, in the assay with NCI-H226 lung, in the assay on SF-295 CNS, in the assay on A549 NSCLC and with COLO 205 colon was over 100 µM in each case. Also, the TGI with MDA-N is over 100 µM; with EKVX NSCLC, over 100 µM; in the assay on SK-MEL-2 melanoma it was 86.1 µM; with MDA-MB-435, over 100 µM; in the assay on HOP-62 NSCLC, over 100 µM; in the assay on ACHN renal, over 100 µM.

As to `CCCCCc1c(CCCC)c(=O)[nH]c2nc(NC(=O)CCCC)ccc12`, the TGI with T-47D breast, in the assay on NCI-H460 lung, with NCI-H226 lung, in the assay with SF-295 CNS, with A549 NSCLC and with COLO 205 colon was over 100 µM throughout. For the same compound, the TGI in the assay with MDA-N, in the assay with EKVX NSCLC, in the assay with SK-MEL-2 melanoma, in the assay on MDA-MB-435, with HOP-62 NSCLC and with ACHN renal was over 100 µM each time.
